Experiments:
Experiment in all cases: normalised viability (% of control), CellTiter-Blue; higher = more viable cells (about 100 = DMSO control)
HDQ-P1 [1] = settings: 10 nM; incubation time: 72 h
Description: (§1)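 DSRT, CellTiter-Blue viability, 72 h incubation. Signal is normalised to DMSO and benzethonium chloride controls. Value is the normalised response at dose 3.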

CAL-85-1 [2] = settings: 10 nM; incubation time: 72 h
Description: as §1

Hs578T [3] = settings: 100 nM; incubation time: 72 h
Description: as §1

CAL-148 [4] = settings: 10 nM; incubation time: 72 h
Description: as §1

MDA-MB-468 [5] = settings: 100 nM; incubation time: 72 h
Description: as §1

CAL-120 [6] = settings: 100 nM; incubation time: 72 h
Description: as §1

MFM-223 [7] = settings: 100 nM; incubation time: 72 h
Description: as §1

CAL-51 = settings: 10 nM; incubation time: 72 h
Description: as §1

SK-BR-3 [8] = settings: 100 nM; incubation time: 72 h
Description: as §1

DU-4475 = settings: 10 nM; incubation time: 72 h
Description: as §1

HCC1599 [9] = settings: 100 nM; incubation time: 72 h
Description: as §1

HCC1937 = settings: 100 nM; incubation time: 72 h
Description: as §1

BT-474 = settings: 100 nM; incubation time: 72 h
Description: as §1

MDA-MB-231 [10] = settings: 100 nM; incubation time: 72 h
Description: as §1

HCC1143 [11] = settings: 100 nM; incubation time: 72 h
Description: as §1

MDA-MB-436 [12] = settings: 100 nM; incubation time: 72 h
Description: as §1

MDA-MB-453 = settings: 10 nM; incubation time: 72 h
Description: as §1

BT-549 = settings: 100 nM; incubation time: 72 h
Description: as §1

HDQ-P1 [13] = settings: incubation time: 72 h
In short: (§2)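 Seeded at 20 µl suspension per well onto compound-loaded 384-well plates, breast cancer cell lines were incubated 72 h. CellTiter-Blue fluorescence at 560/590 nm was then read, with each plate normalised to vehicle (100) and a positive kill control (0). Normalised viability is reported at a single listed concentration of the series.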

CAL-85-1 [14] = settings: incubation time: 72 h
In short: as §2

Hs578T [15] = settings: incubation time: 72 h
In short: as §2

CAL-148 [16] = settings: incubation time: 72 h
In short: as §2

MDA-MB-468 [17] = settings: incubation time: 72 h
In short: as §2

CAL-120 [18] = settings: incubation time: 72 h
In short: as §2

MFM-223 [19] = settings: incubation time: 72 h
In short: as §2

SK-BR-3 [20] = settings: incubation time: 72 h
In short: as §2

HCC1599 [21] = settings: incubation time: 72 h
In short: as §2

MDA-MB-231 [22] = settings: incubation time: 72 h
In short: as §2

HCC1143 [23] = settings: incubation time: 72 h
In short: as §2

MDA-MB-436 [24] = settings: incubation time: 72 h
In short: as §2

COc1cc(Nc2ncc(F)c(Nc3ccc4c(n3)NC(=O)C(C)(C)O4)n2)cc(OC)c1OC [R406]
Settings	normalised viability [%]
BT-474	116
BT-549	105
CAL-51	107
CAL-85-1 [2]	90.2
CAL-120 [6]	90.8
CAL-148 [4]	91.2
DU-4475	122
HCC1143 [11]	84.4
HCC1599 [9]	102
HCC1937	125
HDQ-P1 [1]	107
Hs578T [3]	112
MDA-MB-231 [10]	102
MDA-MB-436 [12]	96.1
MDA-MB-453	106
MDA-MB-468 [5]	92.3
MFM-223 [7]	96.4
SK-BR-3 [8]	95.7

normalised viability [%]
Settings	3 nM	10 nM	30 nM	100 nM	1000 nM	10000 nM
CAL-85-1 [14]	93.8	–	87.8	97.5	–	–
CAL-120 [18]	–	90.6	–	–	91.3	80.5
CAL-148 [16]	95.3	–	100	97.7	–	–
HCC1143 [23]	–	81.2	–	–	83.5	84.4
HCC1599 [21]	–	105	–	–	112	104
HDQ-P1 [13]	111	–	93.7	99.5	–	–
Hs578T [15]	–	115	–	–	105	88.4
MDA-MB-231 [22]	–	95.7	–	–	77.2	52.5
MDA-MB-436 [24]	–	84.3	–	–	102	101
MDA-MB-468 [17]	–	104	–	–	87.3	101
MFM-223 [19]	–	92.4	–	–	89.5	85.4
SK-BR-3 [20]	–	104	–	–	98.3	112

COC1=C2C[C@@H](C)C[C@H](OC)[C@H](O)[C@@H](C)/C=C(\C)[C@H](OC(N)=O)[C@@H](OC)/C=C\C=C(/C)C(=O)NC(=CC1=O)C2=O [Geldanamycin]
Settings	normalised viability [%]
BT-474	33.6
BT-549	39.3
CAL-51	104
CAL-85-1 [2]	105
CAL-120 [6]	25.1
CAL-148 [4]	104
DU-4475	119
HCC1143 [11]	44.3
HCC1599 [9]	83.9
HCC1937	31.3
HDQ-P1 [1]	109
Hs578T [3]	56.8
MDA-MB-231 [10]	31.4
MDA-MB-436 [12]	20
MDA-MB-453	120
MDA-MB-468 [5]	33.8
MFM-223 [7]	50.6
SK-BR-3 [8]	22.8

normalised viability [%]
Settings	3 nM	10 nM	30 nM	100 nM	1000 nM	10000 nM
CAL-85-1 [14]	104	–	87.4	99.2	–	–
CAL-120 [18]	–	91	–	–	13.6	6.18
CAL-148 [16]	102	–	110	108	–	–
HCC1143 [23]	–	90.2	–	–	38.3	24.9
HCC1599 [21]	–	113	–	–	31.3	20.1
HDQ-P1 [13]	124	–	104	44.8	–	–
Hs578T [15]	–	122	–	–	31.1	17.2
MDA-MB-231 [22]	–	102	–	–	15.3	4.86
MDA-MB-436 [24]	–	107	–	–	15.7	16.9
MDA-MB-468 [17]	–	99	–	–	11.2	8.18
MFM-223 [19]	–	103	–	–	17.7	8.14
SK-BR-3 [20]	–	101	–	–	14.9	9.38

From the supplement of paper PMC4862054
